Experimental data taken from patent US20230141600A1, “IMIDAZOPYRAZINE DERIVATIVES” (priority 2020, published 2023).
Where a name gives a salt, the structure may show the parent alone. Read-outs that look alike come from different tables or passages of the source.

Test system: Acinetobacter baumannii ATCC17961
Assay: 90% growth inhibitory concentration (IC90) determination, antimicrobial susceptibility testing
Format: cell-based
Conditions: read-out: ATCC 17961 IC90
Description: Antimicrobial Susceptibility Testing:
90% Growth Inhibitory Concentration (IC90) Determination
The in vitro antimicrobial activity of the compounds was determined according to the following procedure:
The assay used a 10-points Iso-Sensitest broth medium to measure quantitatively the in vitro activity of the compounds against Acinetobacter baumannii ATCC17961 and ATCC17978.
Stock compounds in DMSO were serially twofold diluted (e.g. range from 50 to 0.097 μM final concentration) in 384 wells microtiter plates and inoculated with 49 μl the bacterial suspension in Iso-Sensitest medium to have a final cell concentration of ˜5×10^(5) CFU/ml in a final volume/well of 50 ul/well. Microtiter plates were incubated at 35±2° C.
Bacterial cell growth was determined with the measurement of optical density at λ=600 nm each minutes over a time course of 16 h. Growth inhibition was calculated during the logarithmic growth of the bacterial cells with determination of the concentration inhibiting 50% (IC50) and 90% (IC90) of the growth.
Table 2 provides the 90% growth inhibitory concentrations (IC90) in micromoles per liter of the compounds of present invention obtained against the strain Acinetobacter baumannii ATCC17961.

[1] = Acinetobacter baumannii, ATCC17961, 16 h, 90% growth inhibition, Iso-Sensitest broth, OD 600 nm over 16 h, 35±2° C.
[2] = 90% growth inhibition, Iso-Sensitest broth, OD 600 nm over 16 h, 35±2° C.

Row | IC90 [1] [nM] | Compound | also measured
1 | 267 | CCc1cc(Nc2nccn3c(-c4cn(CC#N)nc4C(F)(F)F)cnc23)ccc1C(=O)NCCOCC[N+]1(CC#N)CCCC1 [Example 4, 1-(Cyanomethyl)-1-(2-(2-(4-((3-(1-(cyanomethyl)-3-(trifluoromethyl)-1H-pyrazol-4-yl)imidazo[1,2-a]pyrazin-8-yl)amino)-2-ethylbenzamido)ethoxy)ethyl)pyrrolidin-1-ium Formate] | 
2 | 121 | COc1ccc(-c2cnc3c(Nc4ccc(C(=O)NCCC[N+](C)(C)CCO)c(Cl)c4)nccn23)c(F)c1F [Example 73, 3-(2-chloro-4-((3-(2,3-difluoro-4-methoxyphenyl)imidazo[1,2-a]pyrazin-8-yl)amino)benzamido)-N-(2-hydroxyethyl)-N,N-dimethylpropan-1-aminium Formate] | 
3 | 82.2 | CCc1cc(Nc2nccn3c(-c4ccc(OC(F)F)c(F)c4F)cnc23)ccc1C(=O)NCCCCC[N+](C)(C)CC(=O)N1CCNCC1 [Example 79, 5-[[4-[[3-[4-(Difluoromethoxy)-2,3-difluoro-phenyl]imidazo[1,2-a]pyrazin-8-yl]amino]-2-ethyl-benzoyl]amino]pentyl-dimethyl-(2-oxo-2-piperazin-1-yl-ethyl)ammonium bis(2,2,2-trifluoroacetate)] | 
4 | 332 | CCc1cc(Nc2nccn3c(-c4ccc(OC(F)F)c(F)c4F)cnc23)ccc1C(=O)NCCC(=O)N1CC[N+](C)(CC2CNC2)CC1 [Example 92, N-[3-[4-(Azetidin-3-ylmethyl)-4-methyl-piperazin-4-ium-1-yl]-3-oxo-propyl]-4-[[3-[4-(difluoromethoxy)-2,3-difluoro-phenyl]imidazo[1,2-a]pyrazin-8-yl]amino]-2-ethyl-benzamide bis(2,2,2-trifluoroacetate)] | 
5 |  | CCc1cc(Nc2nccn3c(-c4ccc(OC)c(F)c4F)cnc23)ccc1C(=O)NCC[C@H](NC(=O)C1CC[N+](C)(CC2CNC2)CC1)C(=O)OC (mixture of isomers) [Example 121, Methyl (2S)-2-[[1-(azetidin-3-ylmethyl)-1-methyl-piperidin-1-ium-4-carbonyl]amino]-4-[[4-[[3-(2,3-difluoro-4-methoxy-phenyl)imidazo[1,2-a]pyrazin-8-yl]amino]-2-ethyl-benzoyl]amino]butanoate formate 2,2,2-trifluoroacetate (Mixed Salt)] | IC90 [2]: 854 nM
6 | 484 | CCc1cc(Nc2nccn3c(-c4ccc(Oc5ncccn5)c(F)c4F)cnc23)ccc1C(=O)NCCCNC(=O)C1CC[N+](C)(CC2CCNC2)CC1 (centres unmarked) [Example 3, N-[3-[[4-[[3-(2,3-difluoro-4-pyrimidin-2-yloxy-phenyl)imidazo[1,2-a]pyrazin-8-yl]amino]-2-ethyl-benzoyl]amino]propyl]-1-methyl-1-(pyrrolidin-3-ylmethyl)piperidin-1-ium-4-carboxamide Formate] | 
7 | 457 | CCc1cc(Nc2nccn3c(-c4ccc(OC(F)F)c(F)c4F)cnc23)ccc1C(=O)N1CCN(C(=O)C2CC[N+](C)(CC3CNC3)CC2)C(C(=O)OC)C1 (centres unmarked) [Example 94, methyl 1-[1-(azetidin-3-ylmethyl)-1-methyl-piperidin-1-ium-4-carbonyl]-4-[4-[[3-[4-(difluoromethoxy)-2,3-difluoro-phenyl]imidazo[1,2-a]pyrazin-8-yl]amino]-2-ethyl-benzoyl]piperazine-2-carboxylate tris(2,2,2-trifluoroacetate)] | 
8 | 44.8 | COc1ccc(-c2cnc3c(Nc4ccc(C(=O)N[C@H]5CCN(C(=O)C[N+](C)(C)C)C5)c(C)c4)nccn23)c(F)c1F [Example 67, (S)-2-(3-(4-((3-(2,3-Difluoro-4-methoxyphenyl)imidazo[1,2-a]pyrazin-8-yl)amino)-2-methylbenzamido)pyrrolidin-1-yl)-N,N,N-trimethyl-2-oxoethan-1-aminium Chloride] | 
9 |  | Methyl 2-[1-[1-(azetidin-3-ylmethyl)-1-methyl-piperidin-1-ium-4-carbonyl]-4-piperidyl]-2-[[4-[[3-(2,3-difluoro-4-methoxy-phenyl)imidazo[1,2-a]pyrazin-8-yl]amino]-2-ethyl-benzoyl]amino]acetate formate 2,2,2-trifluoroacetate (Mixed Salt) [Example 125] | IC90 [2]: 1550 nM
10 |  | CCc1cc(Nc2nccn3c(-c4ccc(OC(F)F)c(F)c4F)cnc23)ccc1C(=O)NCCCNC(=O)C1CC[N+](C)(CC2CCNC2)CC1 (centres unmarked) [Example 82, N-[3-[[4-[[3-[4-(Difluoromethoxy)-2,3-difluoro-phenyl]imidazo[1,2-a]pyrazin-8-yl]amino]-2-ethyl-benzoyl]amino]propyl]-1-methyl-1-(pyrrolidin-3-ylmethyl)piperidin-1-ium-4-carboxamide bis (2,2,2-trifluoroacetate)] | IC90 (Acinetobacter baumannii, ATCC17961, 16 h): 110 nM
11 | 132 | COc1ccc(-c2cnc3c(Nc4ccc(C(=O)N5CCN(C(=O)[C@@H]6C[C@@H](O)C[N+]6(C)C)CC5)c(C)c4)nccn23)c(F)c1F [Example 55, (2S,4R)-2-(4-(4-((3-(2,3-Difluoro-4-methoxyphenyl)imidazo[1,2-a]pyrazin-8-yl)amino)-2-methylbenzoyl)piperazine-1-carbonyl)-4-hydroxy-1,1-dimethylpyrrolidin-1-ium Formate] | 
12 | 132 | CCc1cc(Nc2nccn3c(-c4ccc(OC(F)F)c(F)c4F)cnc23)ccc1C(=O)N1CCN(C(=O)C2CC[N+](C)(CC3CCNC3)CC2)CC1 (centres unmarked) [Example 84, [4-[[3-[4-(difluoromethoxy)-2,3-difluoro-phenyl]imidazo[1,2-a]pyrazin-8-yl]amino]-2-ethyl-phenyl]-[4-[1-methyl-1-(pyrrolidin-3-ylmethyl)piperidin-1-ium-4-carbonyl]piperazin-1-yl]methanone bis(2,2,2-trifluoroacetate)] | 
13 | 168 | CCc1cc(Nc2nccn3c(-c4ccc(OC(F)F)c(F)c4F)cnc23)ccc1C(=O)N1CCN(C(=O)C2CC[N+](C)(CC34CC(N)(C3)C4)CC2)CC1 (centres unmarked) [Example 86, [4-[1-[(3-amino-1-bicyclo[1.1.1]pentanyl)methyl]-1-methyl-piperidin-1-ium-4-carbonyl]piperazin-1-yl]-[4-[[3-[4-(difluoromethoxy)-2,3-difluoro-phenyl]imidazo[1,2-a]pyrazin-8-yl]amino]-2-ethyl-phenyl]methanone bis(2,2,2-trifluoroacetate)] | 
14 | 263 | COc1ccc(-c2cnc3c(Nc4ccc(C(=O)N[C@H]5CC[C@H](NC(=O)C[N+](C)(C)C)CC5)c(C)c4)nccn23)c(F)c1F [Example 69, 2-(((1r,4r)-4-(4-((3-(2,3-Difluoro-4-methoxyphenyl)imidazo[1,2-a]pyrazin-8-yl)amino)-2-methylbenzamido)cyclohexyl)amino)-N,N,N-trimethyl-2-oxoethan-1-aminium Chloride] | 
15 | 2800 | Cc1cc(Nc2nccn3c(-c4cn(C)nc4C(F)(F)F)cnc23)ccc1C(=O)N1CCN(C(=O)C[N+](C)(C)C)CC1 [Example 111, Trimethyl-[2-[4-[2-methyl-4-[[3-[1-methyl-3-(trifluoromethyl)pyrazol-4-yl]imidazo[1,2-a]pyrazin-8-yl]amino]benzoyl]piperazin-1-yl]-2-oxo-ethyl]ammonium Formate] | 
16 | 241 | CCc1cc(Nc2nccn3c(-c4ccc(OC)c(F)c4F)cnc23)ccc1C(=O)NCCCCC[N+](C)(CC(=O)O)CC1CNC1 (centres unmarked) [Example 106, Azetidin-3-ylmethyl-(carboxymethyl)-[5-[[4-[[3-(2,3-difluoro-4-methoxy-phenyl)imidazo[1,2-a]pyrazin-8-yl]amino]-2-ethyl-benzoyl]amino]pentyl]-methyl-ammonium Formate] | 
17 | 485 | CCc1cc(Nc2nccn3c(-c4ccc(OC(F)F)c(F)c4F)cnc23)ccc1C(=O)NCC1CC[N+](C)(CC2CNC2)C1 (centres unmarked) [Example 88, N-[[1-(azetidin-3-ylmethyl)-1-methyl-pyrrolidin-1-ium-3-yl]methyl]-4-[[3-[4-(difluoromethoxy)-2,3-difluoro-phenyl]imidazo[1,2-a]pyrazin-8-yl]amino]-2-ethyl-benzamide bis(2,2,2-trifluoroacetate)] | 
18 | 342 | CCc1cc(Nc2nccn3c(-c4ccc(OC)c(F)c4F)cnc23)ccc1C(=O)N[C@H]1CC[C@H](NC(=O)C[N+](C)(C)C)CC1 [Example 77, Trans-[2-[[4-[[4-[[3-(2,3-Difluoro-4-methoxyphenyl)imidazo[1,2-a]pyrazin-8-yl]amino]-2-ethylbenzoyl]amino]cyclohexyl]amino]-2-oxoethyl]-trimethylazanium formate] | 
19 | 27.4 | CCc1cc(Nc2nccn3c(-c4ccc(OC)c(F)c4F)cnc23)ccc1C(=O)NCCCCC[N+](C)(C)CC(N)=O [Example 76, Mono(N-(2-amino-2-oxoethyl)-5-(4-((3-(2,3-difluoro-4-methoxyphenyl)imidazo[1,2-a]pyrazin-8-yl)amino)-2-ethylbenzamido)-N,N-dimethylpentan-1-aminium) monoformate Monoiodide] | 
20 | 127 | CCc1cc(Nc2nccn3c(-c4ccc(OC(F)F)c(F)c4F)cnc23)ccc1C(=O)N1CCN(C(=O)C2CC[N+](C)(CCN)CC2)CC1 (centres unmarked) [Example 83, [4-[1-(2-aminoethyl)-1-methyl-piperidin-1-ium-4-carbonyl]piperazin-1-yl]-[4-[[3-[4-(difluoromethoxy)-2,3-difluoro-phenyl]imidazo[1,2-a]pyrazin-8-yl]amino]-2-ethyl-phenyl]methanone bis(2,2,2-trifluoroacetate)] | 
